Measured values as given in patent US12329739B2, “Isoflavonoid compounds and methods for the treatment of cancer” (Aardvark Therapeutics, Inc., priority 2010, dated 2025).
pIC50: −log10 of the molar value.

Columns and labels:
4405 = experiment: MTT proliferation assay, 4405; assay type: cell-based; conditions: Melanoma, 4405, 120 h of exposure
Experimental: (§1) Proliferation Assays. IC50 values were determined for each cell line. Cells were seeded in 96-well plates at an appropriate cell density as determined from growth kinetics analysis and cultured for 5 days in the absence and presence of the test compounds. Cell proliferation was assessed after the addition of 20 μl of 3-4,5 dimethylthiazol-2,5-diphenyl tetrazolium bromide (MTT, 5 mg/ml in PBS, Sigma) for 5 hrs at 37° C. according to manufacturer's instructions. IC50 values were calculated from semi-log plots of % of control proliferation on the y-axis against log dose on the x-axis.
(§2) Anti-proliferative Activity of Isoflavonoid Derivatives. IC50 values were determined for each cell line after 120 h of exposure.

DU145 = experiment: MTT proliferation assay, DU145; assay type: cell-based; conditions: Homo sapiens, DU-145; Prostate, DU145, 120 h of exposure
Experimental: as §1, §2

SKBR-3 = experiment: MTT proliferation assay, SKBR-3; assay type: cell-based, human; conditions: Homo sapiens, SK-BR-3, 120 h, Breast, SKBR-3, 120 h of exposure
Experimental: The human colorectal adenocarcinoma line HCT-116 (CCL-247) and the human breast adenocarcinoma line SK-BR-3 (HTB-30) were cultured in McCoy's 5a Medium (Invitrogen) containing 1.5 mM L-glutamine and 2.2 g/L sodium bicarbonate. The human colorectal adenocarcinoma line SW620 (CCL-227) was cultured in Leibovitz's L-15 Medium (Invitrogen) containing 2.05 mM L-glutamine.
as §1, §2

R-182 = experiment: MTT proliferation assay, R-182; assay type: cell-based; conditions: Ovarian, R-182, 120 h of exposure
Excerpt: Tissue culture. The multidrug resistant primary epithelial ovarian cancer cell line R-182 TARA was a gift from Dr. Gil Mor (Yale University, New Haven, CT, USA). This cell line was derived by explant from ovarian tumors and cultured as previously described. All other cell lines were purchased from American Type Culture Collection (ATCC, Manassas, VA, USA) with the exception of MKN1, HuH-7, JHH-1, which were purchased from the Japanese Collection of Research Bioresources (JCRB, Osaka, Japan), and OE19 which was purchased from the European Collection of Cell Cultures (ECACC, Salisbury, UK).
as §1, §2

HepG2 = experiment: MTT proliferation assay, HepG2; assay type: cell-based, human; conditions: Homo sapiens; Liver, HepG2, 120 h of exposure
Experimental: (§3) The human hepatocellular carcinoma lines HepG2 (HB-8065), SK-HEP-1 (HTB-52) and the normal human lung fibroblast line IMR-90 (CCL-186) were cultured in Minimum Essential Eagles Medium containing 2 mM L-glutamine, 2.2 g/L sodium bicarbonate, supplemented with 1 mM sodium pyruvate and 0.1 mM non-essential amino acids. The human hepatocellular carcinoma line JHH-1 (JCRB1062) was cultured in Williams E Medium (Invitrogen) containing 2.2 g/L sodium bicarbonate, supplemented with 2 mM L-glutamine. The hepatocellular carcinoma line HuH-7 (JCRB0403) was cultured in DMEM, supplemented with 2 mM L-glutamine.
as §1, §2

CP70 = experiment: MTT proliferation assay, CP70; assay type: cell-based; conditions: 120 h, Ovarian, CP70, 120 h of exposure
Experimental: as §1, §2

MM200 = experiment: MTT proliferation assay, MM200; assay type: cell-based; conditions: Melanoma, MM200, 120 h of exposure
Experimental: as §1, §2

SK-Hep-1 = experiment: MTT proliferation assay, SK-Hep-1; assay type: cell-based, human; conditions: Homo sapiens, SK-HEP1; Liver, SK-Hep-1, 120 h of exposure
Experimental: as §3, §1, §2

A549 = experiment: MTT proliferation assay, A549; assay type: cell-based; conditions: Homo sapiens; NSCLC, A549, 120 h of exposure
Experimental: as §1, §2

COLO205 = experiment: MTT proliferation assay, COLO205; assay type: cell-based, human; conditions: Homo sapiens, COLO 205; CRC, COLO205, 120 h of exposure
Experimental: (§4) The human non-small cell lung adenocarcinoma lines NCI-H1299 (CRL-5803), NCI-H460 (HTB-177), NCI-H358 (CRL-5807), NCI-H838 (CRL-5844), the human colorectal adenocarcinoma lines COLO 205 (CCL-222), HCT-15 (CCL-225) and the human gastric cancer cell line NCI-N87 (CRL-5822) were cultured in RPMI 1640 medium containing 2 g/L sodium bicarbonate (Hyclone/Invitrogen) supplemented with 2 mM L-glutamine (Gibco) 1 mM sodium pyruvate (Sigma), 10 mM HEPES (Sigma) and 4500 mg/L glucose (Sigma). The human non-small cell lung adenocarcinoma line NCI-H2126 (CCL-256) was cultured in DMEM:F12(1:1) (Hyclone/Invitrogen) containing 2.5 mM L-glutamine 2.4 g/L sodium bicarbonate supplemented with 5% fetal bovine serum (FBS), an additional 2 mM L-glutamine, 15 mM HEPES, 0.005 mg/ml insulin (Sigma), 0.01 mg/ml transferrin (Sigma), 30 nM sodium selenite (Sigma), 10 nM hydrocortisone (Sigma) and 10 nM beta-estradiol (Sigma). The human colorectal adenocarcinoma line HT-29 (HTB-38) and the human gastric cancer cell lines OE-19 (#96071721) and MKN1 (JCRB0252) were cultured in RPMI 1640 media supplemented with 2 mM L-glutamine.
as §1, §2

A2780 = experiment: MTT proliferation assay, A2780; assay type: cell-based; conditions: Homo sapiens, A2780, 120 h, Ovarian, A2780, 120 h of exposure
Experimental: as §1, §2

CALU3 = experiment: MTT proliferation assay, CALU3; assay type: cell-based; conditions: Homo sapiens, Calu-3; NSCLC, CALU3, 120 h of exposure
Experimental: as §1, §2

LNCaP = experiment: MTT proliferation assay, LNCaP; assay type: cell-based; conditions: Homo sapiens, Prostate, 120 h of exposure
Experimental: as §1, §2

NCI-H460 = experiment: MTT proliferation assay, NCI-H460; assay type: cell-based, human; conditions: Homo sapiens; NSCLC, NCI-H460, 120 h of exposure
Experimental: as §4, §1, §2

PC3 = experiment: MTT proliferation assay, PC3; assay type: cell-based; conditions: Homo sapiens, PC-3, 120 h, Prostate, PC3, 120 h of exposure
Experimental: as §1, §2

A2058 = experiment: MTT proliferation assay, A2058; assay type: cell-based; conditions: Homo sapiens, A2058, 120 h, Melanoma, A2058, 120 h of exposure
Experimental: as §1, §2

MDA-MB-468 = experiment: MTT proliferation assay, MDA-MB-468; assay type: cell-based, human; conditions: Homo sapiens, MDA-MB-468, 120 h, Breast, MDA-MB-468, 120 h of exposure
Experimental: The human gastric cancer cell line AGS (CRL-1739) was cultured in Hams F-12K (Kaighans modification) medium containing 2 mM L-glutamine, 2.5 g/L sodium bicarbonate and 2 mM sodium pyruvate. The human breast adenocarcinoma line MDA-MB-468 (HTB-132) was cultured in DMEM:F12 (1:1) medium containing 2.5 mM L-glutamine, 2.4 g/L sodium bicarbonate, supplemented with an additional 2 mM L-glutamine.
as §1, §2

HuH-7 = experiment: MTT proliferation assay, HuH-7; assay type: cell-based, human; conditions: Homo sapiens; Liver, HuH-7, 120 h of exposure
Experimental: as §3, §1, §2

pIC50 (DU145)	pIC50 (SKBR-3)	pIC50 (HepG2)	pIC50 (SK-Hep-1)	pIC50 (A549)	pIC50 (COLO205)	pIC50 (A2780)	pIC50 (CALU3)	pIC50 (LNCaP)	pIC50 (NCI-H460)	pIC50 (PC3)	pIC50 (MDA-MB-468)	pIC50 (HuH-7)	SMILES	pIC50 4405	pIC50 (R-182)	pIC50 (CP70)	pIC50 (MM200)	pIC50 (A2058)
5.00 to 5.80	5.82 to 6.29	5.00 to 5.80	5.00 to 5.80	5.00 to 5.80	≤ 5.00	5.00 to 5.80	5.00 to 5.80	5.00 to 5.80	5.00 to 5.80	5.00 to 5.80	5.00 to 5.80	5.00 to 5.80	COc1ccc(C2c3ccc(O)c(C)c3OCC2c2ccc(O)cc2)cc1C (centres unmarked) [Compound 7, 3-(4-hydroxyphenyl)-4-(4-methoxy-3-methylphenyl)-8-methylchroman-7-ol]	5.00 to 5.80	5.00 to 5.80	5.00 to 5.80	≤ 5.00	5.00 to 5.80
≥ 6.82	≥ 6.82	≥ 6.82	≥ 6.82	6.30 to 6.82	5.82 to 6.29	≥ 6.82	≥ 6.82	≥ 6.82	≥ 6.82	≥ 6.82	≥ 6.82	≥ 6.82	Cc1c(O)ccc2c1OC[C@@H](c1ccc(O)cc1)[C@H]2c1ccc(O)cc1 [d-5, d-cis-3-(4-hydroxyphenyl)-4-(4-hydroxyphenyl)-8-methylchroman-7-ol]	≥ 6.82	≥ 6.82	≥ 6.82	6.30 to 6.82	≥ 6.82
5.82 to 6.29	–	5.82 to 6.29	5.00 to 5.80	5.00 to 5.80	≤ 5.00	5.82 to 6.29	5.00 to 5.80	5.00 to 5.80	5.00 to 5.80	5.82 to 6.29	6.30 to 6.82	5.82 to 6.29	COc1ccc([C@H]2c3ccc(O)c(C)c3OC[C@H]2c2ccc(O)cc2)cc1C [d-7, d-cis-3-(4-hydroxyphenyl)-4-(4-methoxy-3-methylphenyl)-8-methylchroman-7-ol]	5.00 to 5.80	5.82 to 6.29	5.82 to 6.29	–	5.82 to 6.29
≤ 5.00	–	≤ 5.00	≤ 5.00	≤ 5.00	≤ 5.00	≤ 5.00	≤ 5.00	≤ 5.00	≤ 5.00	≤ 5.00	≤ 5.00	≤ 5.00	COc1ccc([C@@H]2c3ccc(O)c(C)c3OC[C@@H]2c2ccc(O)cc2)cc1C [l-7, l-cis-3-(4-hydroxyphenyl)-4-(4-methoxy-3-methylphenyl)-8-methylchroman-7-ol]	≤ 5.00	≤ 5.00	≤ 5.00	–	≤ 5.00
